# Data published in article PMC4779142, “The fully synthetic MAG-Tn3 therapeutic vaccine containing the tetanus toxoid-derived TT830-844 universal epitope provides anti-tumor immunity” (Cancer Immunology, Immunotherapy : CII, 2016).
# Tested on: CD4+ T cells from C3H/HeN lymph nodes
# Assay type: cell-based, mouse
# Settings: n = 5, sc 50 μg peptide with CFA, day 11, 50 μg/mL peptide in vitro
sequence,measurement,value
"RNTDGSTDYGILQINSR [HEL, H-2k-restricted HEL45-61 peptide derived from hen egg lysozyme ([…])]","TNF-α, IL-2 and IFN-γ production by CD4+ T cells on in vitro stimulation with the peptide","able to produce TNF-α, IL-2 and IFN-γ"
